In PubChem BioAssay (NCI) one finds GI50 and TGI data, which are given here for ten molecules.

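Exposure lasted 48 hours, with cells grown in 96-well plates and compounds tested at five concentrations. GI50 is the concentration that inhibits growth by half. At the TGI there is no net growth.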

What all share (assay): NCI-60 cell line screen, 48 h
For assay [1], the system named is U251 CNS.
For assay [2], the system named is HS 578T breast.
For assay [3], the system named is SK-MEL-28 melanoma.
The test system of assay [4] is M14 melanoma.
Assay [5] concerns SK-MEL-5 melanoma.
Assay [6] has as its system HT29 colon.
Assay [7] relates to T-47D breast.
The test system of assay [8] is SNB-19 CNS.

On to `Nc1n[nH]c2ccc([C@@H]3Nc4c(F)cc5[nH]ncc5c4[C@H]4C5CCC(C5)[C@@H]34)cc12` (some centres not stated), for which the GI50 in assay [1] is 0.376 µM; in assay [2], 0.178 µM; in assay [3], 2.19 µM; in assay [4], 0.206 µM; in assay [5], 0.6 µM; in assay [6], 0.317 µM. The figures for the GI50 in assay [7] and in assay [8] were 0.509 µM and 0.515 µM, respectively. Also, the TGI is 17.3 µM in assay [1]; 8.78 µM in assay [2]; > 60.7 µM in assay [3]; > 32.8 µM in assay [4]; 4.94 µM in assay [5]; > 34.4 µM in assay [6]. Also, the TGI in assay [7] was > 100 µM; in assay [8] it was > 62.9 µM.
Take `Cc1cc(-c2ccco2)cc(C)c1/C=C/c1cncc(-c2nn[nH]n2)c1`: the GI50 in assay [1], in assay [2], in assay [3], in assay [4], in assay [5] and in assay [6] was > 25 µM in each case. In addition, the GI50 in assay [7] and in assay [8] was > 25 µM throughout. Moreover, the TGI in assay [1], in assay [2], in assay [3], in assay [4], in assay [5] and in assay [6] was > 25 µM in each case. Moreover, the TGI in assay [7] and in assay [8] was > 25 µM in each case.
Regarding `Cc1n(Cc2ccc3ccccc3n2)cc[n+]1Cc1ccc2ccccc2c1`, the GI50 was 0.384 µM in assay [1]; 1.18 µM in assay [2]; 0.975 µM in assay [3]; 1.13 µM in assay [4]; 0.533 µM in assay [5]; 0.454 µM in assay [6]. Further, the figures for the GI50 in assay [7] and in assay [8] were 0.371 µM and 0.438 µM, respectively. Also, the TGI is 12.2 µM in assay [1]; 9.72 µM in assay [2]; 7 µM in assay [3]; 10.7 µM in assay [4]; 1.61 µM in assay [5]; 9.61 µM in assay [6]. Further, the TGI was determined as 7.22 µM in assay [7] and 12.1 µM in assay [8].
As to `Cc1ccc(O)cc1Nc1ccnc2cc(-c3ccccn3)ccc12`, the GI50 in assay [1] was 3.29 µM; in assay [2] it was 2.45 µM; in assay [3], 3.38 µM; in assay [4], 3.24 µM; in assay [5] it was 3.6 µM; in assay [6], 3.9 µM. In addition, the figures for the GI50 in assay [7] and in assay [8] were 1.72 µM and 4.54 µM, respectively. The TGI is 6.65 µM in assay [1]; 9.03 µM in assay [2]; 6.79 µM in assay [3]; 7.51 µM in assay [4]; 7.14 µM in assay [5]; 7.81 µM in assay [6]. Further, the values for the TGI in assay [7] and in assay [8] were 9.86 µM and 18.3 µM, respectively.
`CN(c1ccc(NC(=O)NCCN2CCOCC2)cc1)c1ccnc(Nc2ccc(CS(C)(=O)=O)cc2)n1`: the GI50 in assay [1], in assay [2], in assay [3], in assay [4], in assay [5] and in assay [6] was > 25 µM each time. The results for the GI50 in assay [7] and in assay [8] were > 23.6 µM and > 25 µM, respectively. Moreover, the TGI in assay [1], in assay [2], in assay [3], in assay [4], in assay [5] and in assay [6] was > 25 µM each time. Further, the TGI in assay [7] and in assay [8] was > 25 µM throughout.
Regarding `O=CC(O)C(O)C(OC1OC(CO)C(O)C(O)C1O)C(O)CO` (configuration not stated) (tested in a mixture with another compound), the TGI in assay [1], in assay [2], in assay [3], in assay [4], in assay [5] and in assay [6] was > 100 µM each time. Besides, the TGI in assay [7] and in assay [8] was > 100 µM each time.
For `O=[N+]([O-])c1ccc(/C=C\c2ccc3c(c2)OCO3)c([N+](=O)[O-])c1`, the TGI in assay [1] turned out to be 28.9 µM; in assay [2], 38.5 µM; in assay [3], 32.3 µM; in assay [4] it was 31.1 µM; in assay [5], 38.9 µM; in assay [6], 40.3 µM. Further, the TGI was > 100 µM in assay [7] and 33.6 µM in assay [8].
In the case of `COc1cc2c3c(n(CCCN4CCSCC4)c(=O)c2cc1OC)-c1cc2c(cc1C3=O)OCO2`, the GI50 is > 100 µM in assay [1]; 71.7 µM in assay [2]; > 100 µM in assay [3]; > 100 µM in assay [4]; > 100 µM in assay [5]; > 100 µM in assay [6]. For the same molecule, the GI50 in assay [7] is > 100 µM; in assay [8] it was 53.8 µM. Also, the TGI in assay [1], in assay [2], in assay [3], in assay [4], in assay [5] and in assay [6] was > 100 µM in each case. The TGI in assay [7] and in assay [8] was > 100 µM throughout.
As for `C=C(C)[C@@H]1CC[C@]2(C(=O)n3ccnc3)CC[C@]3(C)[C@H](CC[C@@H]4[C@@]5(C)CCCNC(C)(C)[C@@H]5CC[C@]43C)[C@@H]12`, the GI50 in assay [1] was 1.7 µM; in assay [2], 2.08 µM; in assay [3] it was 1.61 µM; in assay [4], 1.6 µM; in assay [5], 1.56 µM; in assay [6] it was 0.785 µM. In addition, the GI50 is 1.53 µM in assay [7] and 2.54 µM in assay [8]. For the same molecule, the TGI worked out at 3.14 µM in assay [1]; 5.08 µM in assay [2]; 3.1 µM in assay [3]; 3.1 µM in assay [4]; 2.9 µM in assay [5]; 2.17 µM in assay [6]. Moreover, the TGI in assay [7] stood at 3.54 µM; in assay [8] it was 6.12 µM.
Turning to `O=S(=O)(NCCCNc1nccc(-c2c(-c3cccc(F)c3)nc3occn23)n1)c1cccc2ccccc12`, the GI50 in assay [1] is 8.89 µM; in assay [2], 8.36 µM; in assay [3] it was 23.6 µM; in assay [4], 5.75 µM; in assay [5], 3.67 µM; in assay [7], 2.59 µM. For the same molecule, the GI50 in assay [8] was 9.41 µM. Also, the TGI is > 100 µM in assay [1]; > 100 µM in assay [2]; > 100 µM in assay [3]; > 100 µM in assay [4]; 43.6 µM in assay [5]; > 100 µM in assay [7]. Besides, in assay [8], the TGI is > 100 µM.
